Test results taken from ChEMBL document CHEMBL4017493, “Peptide Half-Life Extension: Divalent, Small-Molecule Albumin Interactions Direct the Systemic Properties of Glucagon-Like Peptide 1 (GLP-1) Analogues” (J Med Chem, 2017).
Activity calls are given as the source filed them. No cut-off for these calls is given here.

How the values were obtained:
Mus musculus [1] = assay: Antiobesity activity in NMRI mouse assessed as reduction in cumulative food intake at 10 nmol/ml, sc measured up to 20 hrs; type: functional, organism-based
[2] = Half life in iv dosed human; type: ADME, organism-based; settings: in vivo
Albumin = Albumin (Homo sapiens, UniProt P02768); assay: Binding affinity to human serum albumin by SPR analysis; type: ADME; settings: isolated protein
[3] = Half life in C57Bl/6 mouse plasma at 10 nmol/ml, sc; type: ADME
Mus musculus [4] = assay: Antidiabetic activity in NMRI mouse assessed as blood glucose AUC (0 to 120 mins) at 10 nmol/ml, sc administered 45 mins prior to glucose challenge by OGTT (reference value: 1725 +/- 257 mmol/L); type: functional, organism-based; parameters: dose 10 nmol/ml, time < 2 hr
[5] = Induction of self aggregation in pH 7.4 PBS buffer assessed as retention volume by size exclusion chromatographic method
[6] = Tmax in C57Bl/6 mouse plasma at 10 nmol/ml, sc; type: ADME
[7] = Induction of self aggregation in pH 7.4 PBS buffer assessed as supramolecular hydrodynamic radii at 1 mg/ml by dynamic light scattering method
Mus musculus [8] = assay: Antiobesity activity in NMRI mouse assessed as food intake at 10 nmol/ml, sc measured after 20 hrs (reference value: 3.51 +/- 0.49 g); type: functional
[9] = Induction of monodisperse self aggregation in pH 7.4 PBS buffer by dynamic light scattering method
Mus musculus [10] = assay: Antiobesity activity in NMRI mouse assessed as reduction in acute food intake at 10 nmol/ml, sc measured up to 20 hrs; type: functional, organism-based

Albumin, sequence (P02768 whole entry): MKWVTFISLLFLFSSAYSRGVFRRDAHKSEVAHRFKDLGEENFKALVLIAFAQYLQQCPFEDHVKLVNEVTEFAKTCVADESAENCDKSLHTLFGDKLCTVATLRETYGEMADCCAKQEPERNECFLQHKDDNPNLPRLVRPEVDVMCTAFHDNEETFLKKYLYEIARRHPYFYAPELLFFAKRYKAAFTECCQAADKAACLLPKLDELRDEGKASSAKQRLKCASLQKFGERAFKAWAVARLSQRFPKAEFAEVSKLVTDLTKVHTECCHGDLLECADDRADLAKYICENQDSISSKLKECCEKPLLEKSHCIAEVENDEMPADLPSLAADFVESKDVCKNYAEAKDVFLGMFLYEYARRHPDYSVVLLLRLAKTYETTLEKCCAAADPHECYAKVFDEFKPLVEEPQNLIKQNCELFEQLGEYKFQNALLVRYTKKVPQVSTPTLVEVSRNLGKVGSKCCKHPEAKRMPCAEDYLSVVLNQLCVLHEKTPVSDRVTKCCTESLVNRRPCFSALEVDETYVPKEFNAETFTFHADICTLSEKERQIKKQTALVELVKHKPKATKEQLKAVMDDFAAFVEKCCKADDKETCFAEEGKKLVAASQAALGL

SMILES	Activity (Mus musculus [1])	PB (Albumin)	Vr [5] [mL]	other results
CC[C@H](C)[C@H](NC(=O)[C@H](Cc1ccccc1)NC(=O)[C@H](CCC(=O)O)NC(=O)[C@H](CCCCNC(=O)COCCOCCNC(=O)[C@H](CCCNC(=O)COc1ccc(-c2ccc(F)cc2F)cc1C(=O)O)NC(=O)CC[C@H](NC(=O)Cc1c(C)n(C(=O)c2ccc(Cl)cc2)c2ccc(OC)cc12)C(=O)O)NC(=O)[C@H](C)NC(=O)[C@H](C)NC(=O)[C@H](CCC(N)=O)NC(=O)CNC(=O)[C@H](CCC(=O)O)NC(=O)[C@H](CC(C)C)NC(=O)[C@H](Cc1ccc(O)cc1)NC(=O)[C@H](CO)NC(=O)[C@H](CO)NC(=O)[C@@H](NC(=O)[C@H](CC(=O)O)NC(=O)[C@H](CO)NC(=O)[C@@H](NC(=O)[C@H](Cc1ccccc1)NC(=O)[C@@H](NC(=O)CNC(=O)[C@H](CCC(=O)O)NC(=O)[C@H](C)NC(=O)[C@@H](N)Cc1cnc[nH]1)[C@@H](C)O)[C@@H](C)O)C(C)C)C(=O)N[C@@H](C)C(=O)N[C@@H](Cc1c[nH]c2ccccc12)C(=O)N[C@@H](CC(C)C)C(=O)N[C@H](C(=O)N[C@@H](CCCNC(=N)N)C(=O)NCC(=O)N[C@@H](CCCNC(=N)N)C(=O)NCC(=O)O)C(C)C	Active	–	–	–
CC[C@H](C)[C@H](NC(=O)[C@H](Cc1ccccc1)NC(=O)[C@H](CCC(=O)O)NC(=O)[C@H](CCCCN)NC(=O)[C@H](C)NC(=O)[C@H](C)NC(=O)[C@H](CCC(N)=O)NC(=O)CNC(=O)[C@H](CCC(=O)O)NC(=O)[C@H](CC(C)C)NC(=O)[C@H](Cc1ccc(O)cc1)NC(=O)[C@H](CO)NC(=O)[C@H](CO)NC(=O)[C@@H](NC(=O)[C@H](CC(=O)O)NC(=O)[C@H](CO)NC(=O)[C@@H](NC(=O)[C@H](Cc1ccccc1)NC(=O)[C@@H](NC(=O)CNC(=O)[C@H](CCC(=O)O)NC(=O)[C@H](C)NC(=O)[C@H](Cc1cnc[nH]1)NC(=O)[C@H](CCCNC(=N)N)NC(=O)[C@H](CCC(=O)O)NC(=O)[C@H](Cc1ccccc1)NC(=O)[C@H](CCC(=O)O)NC(=O)[C@H](CC(=O)O)NC(=O)[C@@H](N)Cc1cnc[nH]1)[C@@H](C)O)[C@@H](C)O)C(C)C)C(=O)N[C@@H](C)C(=O)N[C@@H](Cc1c[nH]c2ccccc12)C(=O)N[C@@H](CC(C)C)C(=O)N[C@H](C(=O)N[C@@H](CCCCN)C(=O)NCC(=O)N[C@@H](CCCNC(=N)N)C(N)=O)C(C)C	–	–	–	half-life [2]: < 2 min
CC[C@H](C)[C@H](NC(=O)[C@H](Cc1ccccc1)NC(=O)[C@H](CCC(=O)O)NC(=O)[C@H](CCCCNC(=O)COc1ccc(-c2ccc(F)cc2F)cc1C(=O)O)NC(=O)[C@H](C)NC(=O)[C@H](C)NC(=O)[C@H](CCC(N)=O)NC(=O)CNC(=O)[C@H](CCC(=O)O)NC(=O)[C@H](CC(C)C)NC(=O)[C@H](Cc1ccc(O)cc1)NC(=O)[C@H](CO)NC(=O)[C@H](CO)NC(=O)[C@@H](NC(=O)[C@H](CC(=O)O)NC(=O)[C@H](CO)NC(=O)[C@@H](NC(=O)[C@H](Cc1ccccc1)NC(=O)[C@@H](NC(=O)CNC(=O)[C@H](CCC(=O)O)NC(=O)[C@H](C)NC(=O)[C@@H](N)Cc1cnc[nH]1)[C@@H](C)O)[C@@H](C)O)C(C)C)C(=O)N[C@@H](C)C(=O)N[C@@H](Cc1c[nH]c2ccccc12)C(=O)N[C@@H](CC(C)C)C(=O)N[C@H](C(=O)N[C@@H](CCCNC(=N)N)C(=O)NCC(=O)N[C@@H](CCCNC(=N)N)C(=O)NCC(=O)O)C(C)C	inactive	Dose-dependent effect	–	–
CC[C@H](C)[C@H](NC(=O)[C@H](Cc1ccccc1)NC(=O)[C@H](CCC(=O)O)NC(=O)[C@H](CCCCNC(=O)[C@H](CCCNC(=O)COc1ccc(-c2ccc(F)cc2F)cc1C(=O)O)NC(=O)CC[C@H](NC(=O)Cc1c(C)n(C(=O)c2ccc(Cl)cc2)c2ccc(OC)cc12)C(=O)O)NC(=O)[C@H](C)NC(=O)[C@H](C)NC(=O)[C@H](CCC(N)=O)NC(=O)CNC(=O)[C@H](CCC(=O)O)NC(=O)[C@H](CC(C)C)NC(=O)[C@H](Cc1ccc(O)cc1)NC(=O)[C@H](CO)NC(=O)[C@H](CO)NC(=O)[C@@H](NC(=O)[C@H](CC(=O)O)NC(=O)[C@H](CO)NC(=O)[C@@H](NC(=O)[C@H](Cc1ccccc1)NC(=O)[C@@H](NC(=O)CNC(=O)[C@H](CCC(=O)O)NC(=O)[C@H](C)NC(=O)[C@@H](N)Cc1cnc[nH]1)[C@@H](C)O)[C@@H](C)O)C(C)C)C(=O)N[C@@H](C)C(=O)N[C@@H](Cc1c[nH]c2ccccc12)C(=O)N[C@@H](CC(C)C)C(=O)N[C@H](C(=O)N[C@@H](CCCNC(=N)N)C(=O)NCC(=O)N[C@@H](CCCNC(=N)N)C(=O)NCC(=O)O)C(C)C	Active	Dose-dependent effect	6.6	half-life [3]: 299 min; AUC (Mus musculus [4]): 642 mmol·min/L; Tmax [6]: 240 min; Activity [7]: 21.6 nm; Activity (Mus musculus [8]): 1.62 g; Activity [9]: Active
CC[C@H](C)[C@H](NC(=O)[C@H](Cc1ccccc1)NC(=O)[C@H](CCC(=O)O)NC(=O)[C@H](CCCCNC(=O)COCCOCCNC(=O)COc1ccc(-c2ccc(F)cc2F)cc1C(=O)O)NC(=O)[C@H](C)NC(=O)[C@H](C)NC(=O)[C@H](CCC(N)=O)NC(=O)CNC(=O)[C@H](CCC(=O)O)NC(=O)[C@H](CC(C)C)NC(=O)[C@H](Cc1ccc(O)cc1)NC(=O)[C@H](CO)NC(=O)[C@H](CO)NC(=O)[C@@H](NC(=O)[C@H](CC(=O)O)NC(=O)[C@H](CO)NC(=O)[C@@H](NC(=O)[C@H](Cc1ccccc1)NC(=O)[C@@H](NC(=O)CNC(=O)[C@H](CCC(=O)O)NC(=O)[C@H](C)NC(=O)[C@@H](N)Cc1cnc[nH]1)[C@@H](C)O)[C@@H](C)O)C(C)C)C(=O)N[C@@H](C)C(=O)N[C@@H](Cc1c[nH]c2ccccc12)C(=O)N[C@@H](CC(C)C)C(=O)N[C@H](C(=O)N[C@@H](CCCNC(=N)N)C(=O)NCC(=O)N[C@@H](CCCNC(=N)N)C(=O)NCC(=O)O)C(C)C	inactive	–	–	–
CC[C@H](C)[C@H](NC(=O)[C@H](Cc1ccccc1)NC(=O)[C@H](CCC(=O)O)NC(=O)[C@H](CCCCN)NC(=O)[C@H](C)NC(=O)[C@H](C)NC(=O)[C@H](CCC(N)=O)NC(=O)CNC(=O)[C@H](CCC(=O)O)NC(=O)[C@H](CC(C)C)NC(=O)[C@H](Cc1ccc(O)cc1)NC(=O)[C@H](CO)NC(=O)[C@H](CO)NC(=O)[C@@H](NC(=O)[C@H](CC(=O)O)NC(=O)[C@H](CO)NC(=O)[C@@H](NC(=O)[C@H](Cc1ccccc1)NC(=O)[C@@H](NC(=O)CNC(=O)[C@H](CCC(=O)O)NC(=O)[C@H](C)NC(=O)[C@@H](N)Cc1c[nH]cn1)[C@@H](C)O)[C@@H](C)O)C(C)C)C(=O)N[C@@H](C)C(=O)N[C@@H](Cc1c[nH]c2ccccc12)C(=O)N[C@@H](CC(C)C)C(=O)N[C@H](C(=O)N[C@@H](CCCNC(=N)N)C(=O)NCC(=O)N[C@@H](CCCNC(=N)N)C(=O)NCC(=O)O)C(C)C	–	–	14.1	–
CC[C@H](C)[C@H](NC(=O)[C@H](Cc1ccccc1)NC(=O)[C@H](CCC(=O)O)NC(=O)[C@H](CCCCNC(=O)COc1ccc(-c2ccccc2)cc1C(=O)O)NC(=O)[C@H](C)NC(=O)[C@H](C)NC(=O)[C@H](CCC(N)=O)NC(=O)CNC(=O)[C@H](CCC(=O)O)NC(=O)[C@H](CC(C)C)NC(=O)[C@H](Cc1ccc(O)cc1)NC(=O)[C@H](CO)NC(=O)[C@H](CO)NC(=O)[C@@H](NC(=O)[C@H](CC(=O)O)NC(=O)[C@H](CO)NC(=O)[C@@H](NC(=O)[C@H](Cc1ccccc1)NC(=O)[C@@H](NC(=O)CNC(=O)[C@H](CCC(=O)O)NC(=O)[C@H](C)NC(=O)[C@@H](N)Cc1cnc[nH]1)[C@@H](C)O)[C@@H](C)O)C(C)C)C(=O)N[C@@H](C)C(=O)N[C@@H](Cc1c[nH]c2ccccc12)C(=O)N[C@@H](CC(C)C)C(=O)N[C@H](C(=O)N[C@@H](CCCNC(=N)N)C(=O)NCC(=O)N[C@@H](CCCNC(=N)N)C(=O)NCC(=O)O)C(C)C	–	–	9.8 to 16	–
CC[C@H](C)[C@H](NC(=O)[C@H](Cc1ccccc1)NC(=O)[C@H](CCC(=O)O)NC(=O)[C@H](CCCCNC(=O)CC[C@H](NC(=O)Cc1c(C)n(C(=O)c2ccc(Cl)cc2)c2ccc(OC)cc12)C(=O)O)NC(=O)[C@H](C)NC(=O)[C@H](C)NC(=O)[C@H](CCC(N)=O)NC(=O)CNC(=O)[C@H](CCC(=O)O)NC(=O)[C@H](CC(C)C)NC(=O)[C@H](Cc1ccc(O)cc1)NC(=O)[C@H](CO)NC(=O)[C@H](CO)NC(=O)[C@@H](NC(=O)[C@H](CC(=O)O)NC(=O)[C@H](CO)NC(=O)[C@@H](NC(=O)[C@H](Cc1ccccc1)NC(=O)[C@@H](NC(=O)CNC(=O)[C@H](CCC(=O)O)NC(=O)[C@H](C)NC(=O)[C@@H](N)Cc1cnc[nH]1)[C@@H](C)O)[C@@H](C)O)C(C)C)C(=O)N[C@@H](C)C(=O)N[C@@H](Cc1c[nH]c2ccccc12)C(=O)N[C@@H](CC(C)C)C(=O)N[C@H](C(=O)N[C@@H](CCCNC(=N)N)C(=O)NCC(=O)N[C@@H](CCCNC(=N)N)C(=O)NCC(=O)O)C(C)C	inactive	Dose-dependent effect	6.8 to 16	half-life [3]: 55 min; Activity (Mus musculus [10]): inactive; AUC (Mus musculus [4]): 614 mmol·min/L; Tmax [6]: 30 min
